What was measured:
[1] = biological target: Glutamate receptor ionotropic, NMDA 1 (Rattus norvegicus, UniProt P35439); assay: In vitro binding assay for the displacement of [3H]MDL-105519 from the glycine-site of NMDA receptors
[2] = biological target: Glutamate receptor ionotropic, AMPA (Rattus norvegicus, UniProt P19490+P19491+P19492+P19493); assay: In vitro binding assay for the displacement of [3H]AMPA from AMPA receptor; type: protein-complex assay

Structure (SMILES) | IC50 [1] | IC50 [2]
O=C(NCc1cc(Br)cc2[nH]c(=O)c(=O)[nH]c12)c1ccco1 | 0.04 µM | 6.8 µM
O=C(Cc1ccccc1)NCc1cc([N+](=O)[O-])cc2[nH]c(=O)c(=O)[nH]c12 | 0.04 µM | 28.8 µM
O=C(NCc1cc(Br)cc2nc(O)c(O)nc12)c1ccccc1 | 0.06 µM | 1.7 µM
COc1cc(C(=O)NCc2cc([N+](=O)[O-])cc3[nH]c(=O)c(=O)[nH]c23)cc(OC)c1OC | 0.2 µM | 0.064 µM
COc1cccc(CC(=O)NCc2cc(Br)cc3[nH]c(=O)c(=O)[nH]c23)c1 | 0.03 µM | > 10 µM
COc1ccc(NC(=O)NCc2cc([N+](=O)[O-])cc3[nH]c(=O)c(=O)[nH]c23)cc1 | 0.03 µM | 0.3 µM
O=C(Cc1cccc(Cl)c1)NCc1cc(Br)cc2nc(O)c(O)nc12 | 0.04 µM | > 10 µM
O=C(NCc1cc([N+](=O)[O-])cc2nc(O)c(O)nc12)Nc1ccccc1 | 0.9 µM | 4.34 µM
O=C(NCc1cc([N+](=O)[O-])cc2[nH]c(=O)c(=O)[nH]c12)c1cc(O)c(O)c(O)c1 | 0.15 µM | 0.13 µM
O=C(NCc1cc(Br)cc2nc(O)c(O)nc12)c1cc(C(F)(F)F)cc(C(F)(F)F)c1 | > 10 µM | > 10 µM
O=C(NCc1cc(Br)cc2[nH]c(=O)c(=O)[nH]c12)C(O)c1ccccc1 (stereo unspecified) | 0.05 µM | ~10 µM
NS(=O)(=O)c1ccc(C(=O)NCc2cc([N+](=O)[O-])cc3[nH]c(=O)c(=O)[nH]c23)cc1 | 0.63 µM | 0.2 µM
O=C(NCc1cc(Br)cc2[nH]c(=O)c(=O)[nH]c12)C(=O)c1ccccc1 | 4 µM | > 10 µM
O=C(Cc1cccc([N+](=O)[O-])c1)NCc1cc(Br)cc2[nH]c(=O)c(=O)[nH]c12 | 0.04 µM | > 10 µM
O=C(Cc1ccccc1)NCc1cc(Cl)cc2nc(O)c(O)nc12 | 0.01 µM | ~10 µM
O=C(Cc1ccccc1)NCc1cc(Br)cc2[nH]c(=O)c(=O)[nH]c12 | 0.01 µM | > 10 µM
CC(=O)OC(C(=O)NCc1cc(Br)cc2nc(O)c(O)nc12)c1ccccc1 (stereo unspecified) | 0.04 µM | > 10 µM
O=C(NCc1cc([N+](=O)[O-])cc2[nH]c(=O)c(=O)[nH]c12)c1ccccc1O | 0.04 µM | 0.15 µM
O=C(NCc1cc(Br)cc2[nH]c(=O)c(=O)[nH]c12)Oc1ccccc1 | 1.5 µM | > 10 µM
O=C(Cc1ccc2c(c1)OCO2)NCc1cc(Br)cc2[nH]c(=O)c(=O)[nH]c12 | 3.9 µM | > 10 µM
COc1ccc(CC(=O)NCc2cc(Br)cc3[nH]c(=O)c(=O)[nH]c23)cc1OC | 0.05 µM | > 10 µM
O=C(CCc1ccccc1)NCc1cc(Br)cc2nc(O)c(O)nc12 | 0.86 µM | > 10 µM

Structure (SMILES) | IC50 [1] | IC50 [2]
COc1ccccc1NC(=O)NCc1cc([N+](=O)[O-])cc2nc(O)c(O)nc12 | 0.03 µM | 0.63 µM
O=C(NCc1cc(Br)cc2nc(O)c(O)nc12)c1cccs1 | 0.01 µM | 1.6 µM
O=C(Cc1ccc(Cl)cc1)NCc1cc(Br)cc2nc(O)c(O)nc12 | 20 µM | > 10 µM
Nc1ccccc1C(=O)NCc1cc([N+](=O)[O-])cc2[nH]c(=O)c(=O)[nH]c12 | 0.17 µM | 0.3 µM
O=C(Cc1ccsc1)NCc1cc(Br)cc2nc(O)c(O)nc12 | 0.01 µM | 11.3 µM
O=C(Cc1ccc([N+](=O)[O-])cc1)NCc1cc(Br)cc2nc(O)c(O)nc12 | 1.2 µM | > 10 µM
O=C(Cc1ccccc1Cl)NCc1cc(Br)cc2[nH]c(=O)c(=O)[nH]c12 | 0.007 µM | > 10 µM
O=C(Cc1ccccc1[N+](=O)[O-])NCc1cc(Br)cc2nc(O)c(O)nc12 | 0.02 µM | > 10 µM
O=C(NCc1cc(Br)cc2nc(O)c(O)nc12)OCc1ccccc1 | 0.11 µM | ~10 µM
CC(C(=O)NCc1cc(Br)cc2nc(O)c(O)nc12)c1ccccc1 (stereo unspecified) | 0.01 µM | ~10 µM
Cc1ccsc1C(=O)NCc1cc(Br)cc2nc(O)c(O)nc12 | 0.02 µM | ~10 µM
O=C(NCc1cc(Br)cc2[nH]c(=O)c(=O)[nH]c12)c1ccsc1 | 0.01 µM | 2 µM
O=C(Cc1ccccc1)NCc1cc(P(=O)(O)O)cc2[nH]c(=O)c(=O)[nH]c12 | > 10 µM | > 10 µM
O=C(NCc1cc([N+](=O)[O-])cc2nc(O)c(O)nc12)Nc1ccc(OC(F)(F)F)cc1 | 0.35 µM | 1.1 µM
Cc1ccc(C(=O)NCc2cc(Br)cc3[nH]c(=O)c(=O)[nH]c23)s1 | 0.03 µM | 1.7 µM
O=C(Cc1ccccc1)NCc1cccc2[nH]c(=O)c(=O)[nH]c12 | 0.09 µM | > 10 µM
Cn1cccc1C(=O)NCc1cc(Br)cc2[nH]c(=O)c(=O)[nH]c12 | 0.02 µM | > 10 µM
O=C(NCc1cc(Br)cc2nc(O)c(O)nc12)c1cccnc1 | 0.28 µM | 4.3 µM
Cc1ccc(C(=O)NCc2cc(Br)cc3nc(O)c(O)nc23)cn1 | 0.11 µM | ~10 µM
Cc1ncccc1C(=O)NCc1cc(Br)cc2nc(O)c(O)nc12 | 1.8 µM | ~10 µM
O=C(NCc1cc(Br)cc2nc(O)c(O)nc12)c1ccncc1 | 0.25 µM | ~10 µM
